# Earlier results as cited in patent publication US6455086B1, “Microorganism reduction methods and compositions for food cleaning” (The Procter & Gamble Company, priority 1999, dated 2002).
# Where a name gives a salt, the structure may show the parent alone.
# How the values were obtained:
# [1] = system: typical Gram negative and positive bacteria, fungi and yeasts; conditions: used at a level from about 0.001% to about 0.5% by weight of the usage composition
SMILES,"effectiveness against typical Gram negative and positive bacteria, fungi and yeasts [1]",solubility in water
"Cn1sc2c(c1=O)CCC2 [Promexal, 2-methyl-4,5-trimethylene4-isothiazolin-3-one]",effective,–
"O=c1[nH]sc2ccccc12 [Proxel, 1,2-benzisothiazolin-3-one]",effective,–
"[H]/N=C(\N/C(=N/[H])NCCCCCCNC(=N)NC(=N)Nc1ccc(Cl)cc1)Nc1ccc(Cl)cc1 [chlorhexidine diacetate salt, 1,1′-hexamethylene bis(5-(p-chlorophenyl)biguanide)]",–,about 1.8%
"[H]/N=C(\N/C(=N/[H])NCCCCCCNC(=N)NC(=N)Nc1ccc(Cl)cc1)Nc1ccc(Cl)cc1 [chlorhexidine digluconate salt, 1,1′-hexamethylene bis(5-(p-chlorophenyl)biguanide)]",–,about 70%
